The values below come from ChEMBL document CHEMBL3860070, “Optimization and biological evaluation of celastrol derivatives as Hsp90-Cdc37 interaction disruptors with improved druglike properties” (Bioorg Med Chem, 2016).

The species entered for one data set is Homo sapiens. The experiment in a line: Inhibition of His-tagged full length Hsp90/GST-tagged Cdc37 middle domain (unknown origin) interaction at 50 uM after 1 hr by TR-FRET assay relative to control. A general note: TR-FRET usually uses a lanthanide donor and a delayed reading to cut background.
A short description of data set [1]: Antiproliferative activity against human MCF7 cells assessed as reduction in cell viability after 48 hrs by MTT assay. It counts as functional, cell-based. Conditions: MCF7, 48 h.
Data set [2] in a line: Antiproliferative activity against human PANC1 cells assessed as reduction in cell viability after 48 hrs by MTT assay. It counts as functional, cell-based. The settings on record: PANC-1, 48 h. (In general: Tetrazolium dyes change colour on reduction, which living cells bring about.)
Data set [3] in a line: Antiproliferative activity against human A549 cells assessed as reduction in cell viability after 48 hrs by MTT assay. It counts as functional, cell-based. Conditions: A549, 48 h.
Data set [4] can be described thus: Inhibition of His-tagged full length Hsp90/GST-tagged Cdc37 middle domain (unknown origin) interaction after 1 hr by TR-FRET assay. The arrangement: species or system Homo sapiens.
Data set [5] in a line: Permeability of the compound at pH 7.4 by PAMPA-based pION assay. The format is ADME. The settings on record: read-out: permeability. (In general: The PAMPA barrier holds no transporters, so it reflects passive diffusion.)
A short description of data set [6]: Antiproliferative activity against paclitaxel-resistant human A549 cells assessed as reduction in cell viability after 48 hrs by MTT assay. The settings on record: A549, 48 h. The format is functional, cell-based.

Regarding `CC1=C(O)C(=O)C=C2C1=CC=C1[C@@]2(C)CC[C@@]2(C)[C@@H]3C[C@](C)(C(=O)N4CCCC4)CC[C@]3(C)CC[C@]12C`, the inhibition (commonly the drop in the measured response relative to a control, in per cent) in the data set filed under Homo sapiens came to 56.4%. The figures for the IC50 in data set [1], in data set [2] and in data set [3] were 1810 nM, 2110 nM and 2850 nM, respectively.

For `CCN(CC)CCNC(=O)[C@]1(C)CC[C@]2(C)CC[C@]3(C)C4=CC=C5C(=CC(=O)C(O)=C5C)[C@]4(C)CC[C@@]3(C)[C@@H]2C1`, the inhibition in the data set filed under Homo sapiens came out at 94.5%. The IC50 (as a rule, the concentration at which inhibition is half-maximal) in data set [4] was 5740 nM; in data set [1] it was 1030 nM; in data set [2], 1270 nM; in data set [3], 710 nM. Further, in data set [5], the Papp was 53.1 ×10⁻⁶ cm/s.

In the data set filed under Homo sapiens, `CC1=C(O)C(=O)C=C2C1=CC=C1[C@@]2(C)CC[C@@]2(C)[C@@H]3C[C@](C)(C(=O)NCCN4CCOCC4)CC[C@]3(C)CC[C@]12C` showed an inhibition of 77.2%. The IC50 in data set [1] is 1340 nM; in data set [2], 1350 nM; in data set [3], 1270 nM. The Papp in data set [5] amounted to 11.4 ×10⁻⁶ cm/s.

As to `CC1=C(O)C(=O)C=C2C1=CC=C1[C@@]2(C)CC[C@@]2(C)[C@@H]3C[C@](C)(C(=O)NC(C)C)CC[C@]3(C)CC[C@]12C`, the inhibition in the data set filed under Homo sapiens was 60%. Moreover, the IC50 in data set [1] amounted to 2550 nM; in data set [2], 2040 nM; in data set [3] it was 2640 nM.

Turning to `COC(=O)[C@]1(C)CC[C@]2(C)CC[C@]3(C)C4=CC=C5C(=CC(=O)C(O)=C5C)[C@]4(C)CC[C@@]3(C)[C@@H]2C1` [PRISTIMERIN], the inhibition in the data set filed under Homo sapiens worked out at 60.5%. Besides, the 50% inhibitory concentration (IC50) in data set [1] was 1570 nM; in data set [2], 1490 nM; in data set [3], 1400 nM.

In the data set filed under Homo sapiens, `CC1=C(O)C(=O)C=C2C1=CC=C1[C@@]2(C)CC[C@@]2(C)[C@@H]3C[C@](C)(C(=O)NCCN(C(C)C)C(C)C)CC[C@]3(C)CC[C@]12C` yielded an inhibition of 81.6%. Further, the IC50 in data set [1] turned out to be 1260 nM; in data set [2], 1050 nM; in data set [3] it was 800 nM. Besides, in data set [5], the Papp was 35.2 ×10⁻⁶ cm/s.

As to `CCOC(=O)[C@]1(C)CC[C@]2(C)CC[C@]3(C)C4=CC=C5C(=CC(=O)C(O)=C5C)[C@]4(C)CC[C@@]3(C)[C@@H]2C1`, in the data set filed under Homo sapiens, the inhibition amounted to 54.8%. For the same compound, the IC50 was determined as 1760 nM in data set [1], 1560 nM in data set [2] and 1970 nM in data set [3].

`CC1=C(O)C(=O)C=C2C1=CC=C1[C@@]2(C)CC[C@@]2(C)[C@@H]3C[C@](C)(C(=O)N4CCCCC4)CC[C@]3(C)CC[C@]12C`: the inhibition in the data set listed under Homo sapiens stood at 54.8%. The IC50 in data set [1] worked out at 1890 nM; in data set [2], 2290 nM; in data set [3], 1920 nM.

In the data set filed under Homo sapiens, `CC1=C(O)C(=O)C=C2C1=CC=C1[C@@]2(C)CC[C@@]2(C)[C@@H]3C[C@](C)(C(=O)N4CCCC(C)C4)CC[C@]3(C)CC[C@]12C` (stereo not given in full) gave an inhibition of 47.9%. The IC50 in data set [1] is 2030 nM; in data set [2], 1840 nM; in data set [3], 2430 nM.

For `CC1=C(O)C(=O)C=C2C1=CC=C1[C@@]2(C)CC[C@@]2(C)[C@@H]3C[C@](C)(C(=O)NCCN4CCCC4)CC[C@]3(C)CC[C@]12C`, the inhibition in the data set filed under Homo sapiens was 89.2%. For the same compound, the IC50 in data set [4] was 6500 nM; in data set [1], 1100 nM; in data set [2], 1030 nM; in data set [3], 670 nM. The Papp in data set [5] was determined as 23 ×10⁻⁶ cm/s.

With `CC1=C(O)C(=O)C=C2C1=CC=C1[C@@]2(C)CC[C@@]2(C)[C@@H]3C[C@](C)(C(=O)NCCN(C)C)CC[C@]3(C)CC[C@]12C`, the inhibition in the data set listed under Homo sapiens was 93.6%. For the same compound, the IC50 in data set [4] was 5630 nM; in data set [1], 640 nM; in data set [2] it was 1230 nM; in data set [3] it was 1080 nM. Besides, the Papp in data set [5] is 45 ×10⁻⁶ cm/s.

Turning to `CC1=C(O)C(=O)C=C2C1=CC=C1[C@@]2(C)CC[C@@]2(C)[C@@H]3C[C@](C)(C(=O)OCC(C)C)CC[C@]3(C)CC[C@]12C`, the inhibition in the data set listed under Homo sapiens was determined as 28.4%. The IC50 worked out at 2060 nM in data set [1], 1900 nM in data set [2] and 3420 nM in data set [3].

`CC1=C(O)C(=O)C=C2C1=CC=C1[C@@]2(C)CC[C@@]2(C)[C@@H]3C[C@](C)(C(=O)NCCS(C)(=O)=O)CC[C@]3(C)CC[C@]12C`: in the data set filed under Homo sapiens, the inhibition worked out at 69.8%. Moreover, the IC50 was 1300 nM in data set [1], 1200 nM in data set [2] and 2410 nM in data set [3].

Compound `CCNC(=O)[C@]1(C)CC[C@]2(C)CC[C@]3(C)C4=CC=C5C(=CC(=O)C(O)=C5C)[C@]4(C)CC[C@@]3(C)[C@@H]2C1` came in with an inhibition in the data set filed under Homo sapiens of 69%. The IC50 in data set [1] worked out at 1430 nM; in data set [2] it was 1820 nM; in data set [3], 2080 nM.

In the data set filed under Homo sapiens, `CC1=C(O)C(=O)C=C2C1=CC=C1[C@@]2(C)CC[C@@]2(C)[C@@H]3C[C@](C)(C(=O)NCCCn4ccnc4)CC[C@]3(C)CC[C@]12C` showed an inhibition of 71.7%. Further, the IC50 in data set [1] was 1840 nM; in data set [2], 1530 nM; in data set [3], 3370 nM. In addition, the Papp in data set [5] is 0.6 ×10⁻⁶ cm/s.

In turn, `CNC(=O)[C@]1(C)CC[C@]2(C)CC[C@]3(C)C4=CC=C5C(=CC(=O)C(O)=C5C)[C@]4(C)CC[C@@]3(C)[C@@H]2C1` had an inhibition in the data set filed under Homo sapiens of 69.2%. Besides, the IC50 in data set [1] stood at 1200 nM; in data set [2] it was 1420 nM; in data set [3], 1930 nM.

On to `CC1=C(O)C(=O)C=C2C1=CC=C1[C@@]2(C)CC[C@@]2(C)[C@@H]3C[C@](C)(C(=O)OC(C)C)CC[C@]3(C)CC[C@]12C`, for which the inhibition in the data set filed under Homo sapiens came to 51.5%. The IC50 came to 1320 nM in data set [1], 1360 nM in data set [2] and 2580 nM in data set [3].

`CC(=O)NCCNC(=O)[C@]1(C)CC[C@]2(C)CC[C@]3(C)C4=CC=C5C(=CC(=O)C(O)=C5C)[C@]4(C)CC[C@@]3(C)[C@@H]2C1` returned an inhibition in the data set filed under Homo sapiens of 70.5%. Also, the IC50 amounted to 2260 nM in data set [1], 3000 nM in data set [2] and 3120 nM in data set [3].

In the data set listed under Homo sapiens, `CC1=C(O)C(=O)C=C2C1=CC=C1[C@@]2(C)CC[C@@]2(C)[C@@H]3C[C@](C)(C(=O)O)CC[C@]3(C)CC[C@]12C` [CELASTROL] came in with an inhibition of 91.8%. Moreover, the IC50 is 6490 nM in data set [4]; 2130 nM in data set [1]; 2480 nM in data set [2]; 2020 nM in data set [3]; 2010 nM in data set [6]. The Papp in data set [5] came to 13.3 ×10⁻⁶ cm/s.

The compound `CC1=C(O)C(=O)C=C2C1=CC=C1[C@@]2(C)CC[C@@]2(C)[C@@H]3C[C@](C)(C(=O)NCCN4CCCCC4)CC[C@]3(C)CC[C@]12C` displayed an inhibition in the data set filed under Homo sapiens of 75.7%. Moreover, the IC50 in data set [1] worked out at 1180 nM; in data set [2], 1250 nM; in data set [3], 840 nM. In data set [5], the Papp was 18.1 ×10⁻⁶ cm/s.

Take `CCCOC(=O)[C@]1(C)CC[C@]2(C)CC[C@]3(C)C4=CC=C5C(=CC(=O)C(O)=C5C)[C@]4(C)CC[C@@]3(C)[C@@H]2C1`: the inhibition in the data set listed under Homo sapiens worked out at 44.9%. In addition, the IC50 in data set [1] is 1520 nM; in data set [2], 1310 nM; in data set [3], 1740 nM.

Consider `CC1=C(O)C(=O)C=C2C1=CC=C1[C@@]2(C)CC[C@@]2(C)[C@@H]3C[C@](C)(C(=O)N(C)C)CC[C@]3(C)CC[C@]12C`, for which the inhibition in the data set listed under Homo sapiens was 60.6%. Further, the figures for the IC50 in data set [1], in data set [2] and in data set [3] were 1430 nM, 2660 nM and 1810 nM, respectively.

Take `CCCNC(=O)[C@]1(C)CC[C@]2(C)CC[C@]3(C)C4=CC=C5C(=CC(=O)C(O)=C5C)[C@]4(C)CC[C@@]3(C)[C@@H]2C1`: the inhibition in the data set filed under Homo sapiens is 60%. Also, the IC50 in data set [1] is 2040 nM; in data set [2] it was 2370 nM; in data set [3] it was 2490 nM.
